Converted amounts (≈) assume the structure as drawn. The source made the active and inactive calls. No cut-off for these calls is given here.
The compounds below were run against Diacylglycerol acyltransferase/mycolyltransferase Ag85C (Mycobacterium tuberculosis) (UniProt P9WQN9) (assay: Binding affinity to substrate binding site of multidrug resistance Mycobacterium tuberculosis antigen 85C by NMR assay).
Diacylglycerol acyltransferase/mycolyltransferase Ag85C (Mycobacterium tuberculosis), sequence (P9WQN9 whole entry): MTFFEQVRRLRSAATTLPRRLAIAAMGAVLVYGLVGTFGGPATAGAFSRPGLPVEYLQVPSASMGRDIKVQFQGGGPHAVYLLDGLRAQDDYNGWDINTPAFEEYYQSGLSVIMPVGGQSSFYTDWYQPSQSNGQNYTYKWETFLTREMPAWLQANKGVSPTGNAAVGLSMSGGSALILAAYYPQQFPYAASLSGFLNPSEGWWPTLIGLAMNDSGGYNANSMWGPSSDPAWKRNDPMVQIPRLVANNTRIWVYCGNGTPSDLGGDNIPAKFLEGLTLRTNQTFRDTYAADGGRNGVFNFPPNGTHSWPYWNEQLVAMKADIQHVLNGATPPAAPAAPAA
With `CC1CCc2c(sc(N)c2C(N)=O)C1` (stereo not drawn) the Activity was “Active”. With `CC(=O)c1c(N)sc2c1CCCC2` the Activity was “Active”. `CCCC1CCc2c(sc(N)c2C#N)C1` (stereo not drawn) was tested, and the Activity was “Active”. `CCC1CCc2c(sc(N)c2C(N)=O)C1` (stereo not drawn) was tested, and the Activity was “Active”. With `N#Cc1c(N)sc2c1C1CCN2CC1` the Activity was “inactive”. With `O=c1[nH]c(-c2ccncc2)nc2sc3c(c12)CCCC3` the Activity was “inactive”. `CCCC1CCc2c(sc(N)c2C(N)=O)C1` (stereo not drawn) was tested, and the Activity was “Active”. With `CC1CCc2c(sc(N)c2C#N)C1` (stereo not drawn) the Activity was “Active”. For `COC(=O)c1c(N)sc2c1CCCC2`, the Activity was “Active”. In the case of `CCC1CCc2c(sc(N)c2C#N)C1` (stereo not drawn), the Activity is reported as “Active”. With `CCOC(=O)c1c(N)sc2c1C(C)CCC2` (stereo not drawn) the Activity was “Active”. In the case of `CC(C)C(=O)Nc1sc2c(c1C#N)CCCC2`, the Activity is reported as “inactive”. In the case of `Nc1sc2c(c1C(=O)NCc1ccccc1)CCCC2`, the Activity is reported as “inactive”. `CC(=O)Nc1sc2c(c1C#N)CCCC2` was tested, and the Activity was “inactive”. With `CCC1(C)Cc2c(sc(N)c2C#N)CO1` (stereo not drawn) the Activity was “inactive”. For `N#Cc1c(N)sc2c1CCCC2`, the Activity was “Active”. In the case of `N#Cc1c(N)sc2c1CCCCC2`, the Activity is reported as “Active”. `CC1(C)Cc2c(sc(N)c2C#N)CO1` was tested, and the Activity was “inactive”. For `CCN1CCc2c(sc(N)c2C#N)C1`, the Activity was “inactive”.

Each compound was assayed on Mycobacterium tuberculosis (assay: Growth inhibition of multidrug resistance Mycobacterium tuberculosis 2745/09).
Assay type: functional
With `CCCOc1ccc2nc(N)sc2c1` the MIC was 20 µg/mL (≈ 96 µM). In the case of `CCCC1CCc2c(sc(N)c2C#N)C1` (stereo not drawn), the MIC is reported as 50 µg/mL (≈ 227 µM). With `CCC1CCc2c(sc(N)c2C#N)C1` (stereo not drawn) the MIC was 50 µg/mL (≈ 242 µM). Work on `N#Cc1c(N)sc2c1CCCCC2` yielded an MIC of 500 µg/mL (≈ 2600 µM).

— ChEMBL document CHEMBL1629535, “Novel small molecule inhibitors of MDR Mycobacterium tuberculosis by NMR fragment screening of antigen 85C” (2010)
